PubChem BioAssay (NCI)
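These data come from cells grown in 96-well plates and exposed to compound for 48 hours at five concentrations. TGI: concentration producing complete growth inhibition.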

Experiments:
Assay in all cases: NCI tumour cell line growth inhibition, 48 h
[1] = system: SF-268 CNS
[2] = system: LOX IMVI melanoma
[3] = system: M14 melanoma
[4] = system: NCI-H522 lung
[5] = system: OVCAR-4 ovarian
[6] = system: HCT-15 colon
[7] = system: SR leukemia
[8] = system: OVCAR-3 ovarian
[9] = system: MDA-MB-435
[10] = system: HOP-62 NSCLC
[11] = system: NCI-H460 lung
[12] = system: BT-549 breast
[13] = system: RPMI-8226 leukemia
[14] = system: MOLT-4 leukemia
[15] = system: KM12 colon
[16] = system: SK-MEL-5 melanoma
[17] = system: MALME-3M melanoma
[18] = system: HS 578T breast
[19] = system: K-562 leukemia
[20] = system: DU-145 prostate
[21] = system: HCT-116 colon
[22] = system: UACC-257 melanoma
[23] = system: NCI-H226 lung
[24] = system: TK-10 renal
[25] = system: CAKI-1 renal
[26] = system: T-47D breast
[27] = system: 786-0 renal
[28] = system: IGROV1 ovarian
[29] = system: HL-60(TB) leukemia
[30] = system: MDA-N
[31] = system: PC-3 prostate
[32] = system: A498 renal
[33] = system: SN12C renal
[34] = system: UACC-62 melanoma
[35] = system: NCI-H23 lung
[36] = system: SNB-75 CNS
[37] = system: A549 NSCLC
[38] = system: UO-31 renal
[39] = system: SK-MEL-2 melanoma
[40] = system: SK-MEL-28 melanoma
[41] = system: SF-295 CNS
[42] = system: SW-620 colon
[43] = system: OVCAR-8 ovarian
[44] = system: SK-OV-3 ovarian
[45] = system: MCF7 breast
[46] = system: OVCAR-5 ovarian
[47] = system: HT29 colon
[48] = system: HOP-92 NSCLC
[49] = system: HCC-2998 colon
[50] = system: ACHN renal
[51] = system: EKVX NSCLC
[52] = system: SNB-19 CNS
[53] = system: CCRF-CEM leukemia
[54] = system: SF-539 CNS
[55] = system: U251 CNS
[56] = system: NCI/ADR-RES ovarian

Compound: Cc1c2cccc-2c(OCCOC(=O)n2ccnc2)cc2c1[nH]c1ccccc12
- TGI [1]: 5.8 µM
- TGI [2]: 3.86 µM
- TGI [3]: 10.5 µM
- TGI [4]: 4.66 µM
- TGI [5]: 5.63 µM
- TGI [6]: 5.95 µM
- TGI [7]: > 100 µM
- TGI [8]: 4.64 µM
- TGI [9]: 9.69 µM
- TGI [10]: 28.4 µM
- TGI [11]: 18.1 µM
- TGI [12]: 9.06 µM
- TGI [13]: 9.9 µM
- TGI [14]: 25.2 µM
- TGI [15]: 4.65 µM
- TGI [16]: 5.68 µM
- TGI [17]: 7.61 µM
- TGI [18]: > 100 µM
- TGI [19]: 21.7 µM
- TGI [20]: 22 µM
- TGI [21]: 10.3 µM
- TGI [22]: 6.24 µM
- TGI [23]: 8.13 µM
- TGI [24]: 14.4 µM
- TGI [25]: 17.8 µM
- TGI [26]: 8.15 µM
- TGI [27]: 19.9 µM
- TGI [28]: 6.23 µM
- TGI [29]: 5.46 µM
- TGI [30]: 17.5 µM
- TGI [31]: 3.48 µM
- TGI [32]: 21 µM
- TGI [33]: 5.89 µM
- TGI [34]: 6.63 µM
- TGI [35]: 6.31 µM
- TGI [36]: 3.02 µM
- TGI [37]: 11 µM
- TGI [38]: 3.39 µM
- TGI [39]: 5.48 µM
- TGI [40]: 4.63 µM
- TGI [41]: 10.9 µM
- TGI [42]: 14.4 µM
- TGI [43]: 5.22 µM
- TGI [44]: 18.8 µM
- TGI [45]: 19.5 µM
- TGI [46]: 7.51 µM
- TGI [47]: 5.22 µM
- TGI [48]: 4.28 µM
- TGI [49]: 12.1 µM
- TGI [50]: 7.27 µM
- TGI [51]: 4.18 µM
- TGI [52]: 5.97 µM

Compound: O=C1CCC2(c3ccc(Cl)cc3)Nc3ncncc3N12 (stereo not drawn)
- TGI [1]: > 10 µM
- TGI [2]: > 10 µM
- TGI [3]: > 10 µM
- TGI [4]: > 10 µM
- TGI [5]: > 10 µM
- TGI [6]: > 10 µM
- TGI [8]: > 10 µM
- TGI [9]: > 10 µM
- TGI [11]: > 10 µM
- TGI [12]: > 10 µM
- TGI [14]: > 10 µM
- TGI [15]: > 10 µM
- TGI [17]: > 10 µM
- TGI [18]: > 10 µM
- TGI [19]: > 10 µM
- TGI [20]: > 10 µM
- TGI [22]: > 10 µM
- TGI [23]: > 10 µM
- TGI [24]: > 10 µM
- TGI [27]: > 10 µM
- TGI [28]: > 10 µM
- TGI [53]: > 10 µM
- TGI [30]: > 10 µM
- TGI [54]: > 10 µM
- TGI [31]: > 10 µM
- TGI [33]: > 10 µM
- TGI [34]: > 10 µM
- TGI [35]: > 10 µM
- TGI [36]: > 10 µM
- TGI [37]: > 10 µM
- TGI [38]: > 10 µM
- TGI [39]: > 10 µM
- TGI [41]: > 10 µM
- TGI [42]: > 10 µM
- TGI [43]: > 10 µM
- TGI [55]: > 10 µM
- TGI [44]: > 10 µM
- TGI [45]: > 10 µM
- TGI [46]: > 10 µM
- TGI [47]: > 10 µM
- TGI [48]: > 10 µM
- TGI [49]: > 10 µM
- TGI [50]: > 10 µM
- TGI [51]: > 10 µM
- TGI [52]: > 10 µM
- TGI [56]: > 10 µM
